Measurements as given in the supplement of paper PMC11061612.

Assays:
Assay in all cases: combination Emax (second highest fraction inhibited in the dose matrix, 72 h); higher = more inhibition; extreme values may be limits of the assay
[1] = tested on: SK-CO-1 (Colorectal Carcinoma)
Outline: (§1)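 Bliss excess equals the observed combination effect minus the expected value EA + EB − EA·EB, where EA and EB are the effects of each agent alone. Combination Emax is the second-highest inhibition within the matrix. Inhibition was scaled from CellTiter-Glo 2.0 luminescence, with 0 set by vehicle wells and 1 by blank wells, after 72 hours of two-drug dosing of cells plated in 1536-well plates.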

[2] = tested on: LCLC-103H (Non-Small Cell Lung Carcinoma)
Outline: as §1

[3] = tested on: SNU-407 (Colorectal Carcinoma)
Outline: as §1

[4] = tested on: MONO-MAC-6 (Acute Myeloid Leukemia)
Outline: as §1

[5] = tested on: KP-4 (Pancreatic Carcinoma)
Outline: as §1

[6] = tested on: GAK (Melanoma)
Outline: as §1

[7] = tested on: CPC-N (Small Cell Lung Carcinoma)
Outline: as §1

[8] = tested on: SK-N-SH (Neuroblastoma)
Outline: as §1

[9] = tested on: NCI-H1876 (Small Cell Lung Carcinoma)
Outline: as §1

[10] = tested on: BHT-101 (Thyroid Gland Carcinoma)
Outline: as §1

[11] = tested on: NCI-H1963 (Small Cell Lung Carcinoma)
Outline: as §1

[12] = tested on: PA-TU-8988T (Pancreatic Carcinoma)
Outline: as §1

[13] = tested on: MDA-MB-415 (Breast Carcinoma)
Outline: as §1

[14] = tested on: NCI-H596 (Other Solid Carcinomas)
Outline: as §1

[15] = tested on: NCI-H226 (Mesothelioma)
Outline: as §1

[16] = tested on: ES6 (Ewing's Sarcoma)
Outline: as §1

[17] = tested on: OVCAR-3 (Ovarian Carcinoma)
Outline: as §1

[18] = tested on: SCC-4 (Oral Cavity Carcinoma)
Outline: as §1

[19] = tested on: IA-LM (Non-Small Cell Lung Carcinoma)
Outline: as §1

[20] = tested on: MOLT-13 (T-Lymphoblastic Leukemia)
Outline: as §1

Row | SMILES | combination Emax [1] | combination Emax [2] | combination Emax [3] | combination Emax [4] | combination Emax [5] | combination Emax [6] | combination Emax [7] | combination Emax [8] | combination Emax [9] | combination Emax [10] | combination Emax [11] | combination Emax [12] | combination Emax [13] | combination Emax [14] | combination Emax [15] | combination Emax [16] | combination Emax [17] | combination Emax [18] | combination Emax [19] | combination Emax [20]
1 | CCN(CCO)CCCOc1ccc2c(Nc3cc(CC(=O)Nc4cccc(F)c4)[nH]n3)ncnc2c1 [AZD2811] + O=C(c1cc(Cc2n[nH]c(=O)c3ccccc23)ccc1F)N1CCN(C(=O)C2CC2)CC1 [Olaparib] (first compound max 1 µM, 7x7, partner max 10 µM) | 0.615 | 0.752 | 0.306 | 0.783 | 0.513 | 0.295 | 0.807 | 0.479 | 0.821 | 0.201 | 0.856 | 0.208 | 0.225 | 0.238 | 0.236 | 0.249 | 0.147 | 0.406 | 0.222 | 0.997
2 | CN(CCO)CC[C@H](CSc1ccccc1)Nc1ccc(S(=O)(=O)NC(=O)c2ccc(N3CCC([C@@H](O)c4ccccc4-c4ccc(Cl)cc4)CC3)cc2)cc1S(=O)(=O)C(F)(F)F [AZD4320] + C1CN(CCC1(C(=O)N[C@@H](CCO)C2=CC=C(C=C2)Cl)N)C3=NC=NC4=C3C=CN4 [Capivasertib] (first compound max 1 µM, 7x7, partner max 3 µM) | 0.659 | 0.238 | 0.362 | 0.597 | 0.101 | 0.135 | 0.945 | 0.707 | 0.955 | 0.351 | 1 | 0.22 | 0.968 | 0.42 | 0.227 | 0.291 | 0.147 | 0.598 | 0.376 | 0.913
3 | CN(CCO)CC[C@H](CSc1ccccc1)Nc1ccc(S(=O)(=O)NC(=O)c2ccc(N3CCC([C@@H](O)c4ccccc4-c4ccc(Cl)cc4)CC3)cc2)cc1S(=O)(=O)C(F)(F)F [AZD4320] + C=CCn1c(=O)c2cnc(Nc3ccc(N4CCN(C)CC4)cc3)nc2n1-c1cccc(C(C)(C)O)n1 [AZD1775] (first compound max 1 µM, partner max 1 µM) | 0.867 | 0.726 | 0.415 | 0.88 | 0.716 | 0.833 | 0.997 | 0.934 | 1 | 0.659 | 1 | 0.922 | 0.665 | 0.318 | 0.407 | 0.572 | 0.828 | 0.872 | 0.462 | 1
4 | CN(CCO)CC[C@H](CSc1ccccc1)Nc1ccc(S(=O)(=O)NC(=O)c2ccc(N3CCC([C@@H](O)c4ccccc4-c4ccc(Cl)cc4)CC3)cc2)cc1S(=O)(=O)C(F)(F)F [AZD4320] + CCN(CCO)CCCOc1ccc2c(Nc3cc(CC(=O)Nc4cccc(F)c4)[nH]n3)ncnc2c1 [AZD2811] (first compound max 1 µM, 7x7, partner max 1 µM) | 0.889 | 0.344 | 0.411 | 0.959 | 0.368 | 0.257 | 0.971 | 0.761 | 0.998 | 0.279 | 1 | 0.398 | 0.619 | 0.289 | 0.49 | 0.161 | 0.234 | 0.861 | 0.505 | 1
5 | CN(CCO)CC[C@H](CSc1ccccc1)Nc1ccc(S(=O)(=O)NC(=O)c2ccc(N3CCC([C@@H](O)c4ccccc4-c4ccc(Cl)cc4)CC3)cc2)cc1S(=O)(=O)C(F)(F)F [AZD4320] + CN(C)CCCOc1ccc(-c2ccc3ncc4c(c3c2)n(C2CCOCC2)c(=O)n4C)cn1 [AZD0156] (first compound max 1 µM, 7x7, partner max 1 µM) | 0.712 | 0.219 | 0.0943 | 0.422 | 0.101 | 0.209 | 0.967 | 0.641 | 0.982 | 0.394 | 1 | 0.183 | 0.636 | 0.289 | 0.224 | 0.188 | 0.132 | 0.612 | 0.432 | 0.949
6 | CN(CCO)CC[C@H](CSc1ccccc1)Nc1ccc(S(=O)(=O)NC(=O)c2ccc(N3CCC([C@@H](O)c4ccccc4-c4ccc(Cl)cc4)CC3)cc2)cc1S(=O)(=O)C(F)(F)F [AZD4320] + C[C@@H]1COCCN1C2=NC(=NC(=C2)C3(CC3)[S@](=N)(=O)C)C4=C5C=CNC5=NC=C4 [AZD6738] (first compound max 1 µM, 7x7, partner max 10 µM) | 0.928 | 0.546 | 0.709 | 0.943 | 0.487 | 0.793 | 1 | 0.988 | 1 | 0.877 | 1 | 0.319 | 0.879 | 0.425 | 0.193 | 0.665 | 0.555 | 0.872 | 0.715 | 1
7 | CN(CCO)CC[C@H](CSc1ccccc1)Nc1ccc(S(=O)(=O)NC(=O)c2ccc(N3CCC([C@@H](O)c4ccccc4-c4ccc(Cl)cc4)CC3)cc2)cc1S(=O)(=O)C(F)(F)F [AZD4320] + C[C@@H](Nc1cc(F)cc(F)c1)c1cc(C(=O)N(C)C)cc2c(=O)cc(N3CCOCC3)oc12 [AZD8186] (first compound max 1 µM, 7x7, partner max 3 µM) | 0.917 | 0.507 | 0.311 | 0.714 | 0.273 | 0.312 | 0.95 | 0.986 | 1 | 0.616 | 1 | 0.437 | 0.909 | 0.381 | 0.279 | 0.463 | 0.512 | 0.765 | 0.617 | 0.996
8 | CN(CCO)CC[C@H](CSc1ccccc1)Nc1ccc(S(=O)(=O)NC(=O)c2ccc(N3CCC([C@@H](O)c4ccccc4-c4ccc(Cl)cc4)CC3)cc2)cc1S(=O)(=O)C(F)(F)F [AZD4320] + Cc1cc2ncnn2cc1Nc1ncc2c(n1)n(C1CCOCC1)c(=O)n2C [AZD7648] (first compound max 1 µM, 7x7, partner max 10 µM) | 0.646 | 0.223 | 0.721 | 0.393 | 0.136 | 0.314 | 0.984 | 0.828 | 0.925 | 0.363 | 1 | 0.23 | 0.749 | 0.338 | 0.0544 | 0.268 | 0.156 | 0.737 | 0.488 | 0.951
9 | CN(CCO)CC[C@H](CSc1ccccc1)Nc1ccc(S(=O)(=O)NC(=O)c2ccc(N3CCC([C@@H](O)c4ccccc4-c4ccc(Cl)cc4)CC3)cc2)cc1S(=O)(=O)C(F)(F)F [AZD4320] + Cn1cnc2c(F)c(Nc3ccc(Br)cc3Cl)c(C(=O)NOCCO)cc21 [Selumetinib] (first compound max 1 µM, 7x7, partner max 3 µM) | 0.941 | 0.423 | 0.57 | 0.658 | 0.254 | 0.796 | 0.955 | 0.995 | 1 | 0.852 | 1 | 0.379 | 0.583 | 0.343 | 0.204 | 0.449 | 0.563 | 0.775 | 0.744 | 1
10 | COc1nnc2ccc(N3CCC(c4ccc(OCCN5CCN(C)C(=O)[C@H]5C)cc4)CC3)nn12 [AZD5153] + C=CCn1c(=O)c2cnc(Nc3ccc(N4CCN(C)CC4)cc3)nc2n1-c1cccc(C(C)(C)O)n1 [AZD1775] (first compound max 1 µM, partner max 1 µM) | 0.56 | 0.549 | 0.89 | 0.989 | 0.684 | 0.471 | 0.918 | 0.645 | 0.99 | 0.737 | 0.952 | 0.778 | 0.44 | 0.803 | 0.448 | 0.516 | 0.852 | 0.568 | 0.348 | 1
11 | COc1nnc2ccc(N3CCC(c4ccc(OCCN5CCN(C)C(=O)[C@H]5C)cc4)CC3)nn12 [AZD5153] + CC1(C)CCC(CN2CCN(c3ccc(C(=O)NS(=O)(=O)c4ccc(NCC5CCOCC5)c([N+](=O)[O-])c4)c(Oc4cnc5[nH]ccc5c4)c3)CC2)=C(c2ccc(Cl)cc2)C1 [Venetoclax] (first compound max 1 µM, 7x7, partner max 1 µM) | 0.321 | 0.376 | 0.902 | 0.989 | 0.526 | 0.478 | 0.539 | 0.623 | 0.3 | 0.718 | 0.988 | 0.664 | 0.409 | 0.751 | 0.438 | 0.292 | 0.522 | 0.389 | 0.495 | 0.987
